Assay results taken from patent US20200264182A1, “METHOD FOR DETECTING PROSTATE CANCER” (J-OIL MILLS, INC., priority 2017, published 2020).
Where no end group is shown, it is not given here.

Experiments:
[1] = FAC binding constant (Table 5 entry); settings: Table 5: sugar chain having no fucose; at 25° C.
Outline: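 Sugar chains of various structures are screened by FAC for binding to the α1→6 fucose-specific lectins PhoSL, SRL, NSL and LSL, and the constants are recorded at 25° C.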

serum fucosylated PSA = assay: Sandwich ELISA, anti-PSA antibody and biotin-labeled lectin; assay type: binding, human; settings: for Δ (=A − B): reaction value of Prostate cancer 4 minus Healthy 1; for lectin reaction value B of Healthy 1: serum of Healthy 1; for lectin reaction value A of Prostate cancer 4: serum of Prostate cancer 4, GS 6 (3 + 3)
Outline: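 De-glycosylated anti-PSA antibody (5 μg/mL) captured PSA from 2-fold diluted serum, detected with biotin-PhoSL (0.1 μg/mL, 4° C, 30 min) in 0.1% BSA/diluted PBS+glycine-NaOH pH 9.6 or PBS pH 7.4, then HRP-streptavidin/TMB at Ab450-630. Values in U/mL from fucosylated PSA calibration, 10 ng/mL defined as 10 U/mL; AAL substituted for comparison.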

[2] = subject samples A, 7 healthy persons, pH 9.6
[3] = subject samples A, 9 patients, pH 9.6
[4] = subject samples B, n 9, high blood PSA but no cancer in biopsy, pH 9.6
[5] = subject samples B, n 11, pH 9.6

Substance: PhoSL: fucose α1→6 specific lectin that can be extracted from Pholiota squarrosa, SEQ ID No. 1 (APVPVTKLVCDGDTYKCTAYLDFGDGRWVAQWDTNVFHTG; not fully specified; ends and bridges not checked)
- Binding constant for sugar chain No. 728 [1]: <1000 M⁻¹
- Δ (=A − B) (serum fucosylated PSA; pH in lectin reaction 7.4): 72.6 U/mL
- Δ (=A − B) (serum fucosylated PSA; pH in lectin reaction 9.6): 126.9 U/mL
- lectin reaction value B of Healthy 1 (serum fucosylated PSA; pH in lectin reaction 7.4): 35.8 U/mL
- lectin reaction value B of Healthy 1 (serum fucosylated PSA; pH in lectin reaction 9.6): 51.9 U/mL
- lectin reaction value of Healthy 2 (serum fucosylated PSA; serum of Healthy 2, pH in lectin reaction 9.6): 55.9 U/mL
- lectin reaction value of Healthy 3 (serum fucosylated PSA; serum of Healthy 3, pH in lectin reaction 9.6): 63.9 U/mL
- lectin reaction value of Healthy 4 (serum fucosylated PSA; serum of Healthy 4, pH in lectin reaction 9.6): 74.9 U/mL
- lectin reaction value of Healthy 5 (serum fucosylated PSA; serum of Healthy 5, pH in lectin reaction 9.6): 55.8 U/mL
- lectin reaction value of Healthy 6 (serum fucosylated PSA; serum of Healthy 6, pH in lectin reaction 9.6): 39.7 U/mL
- lectin reaction value of Healthy 7 (serum fucosylated PSA; serum of Healthy 7, pH in lectin reaction 9.6): 59.0 U/mL
- lectin reaction value of Prostate cancer 1 (serum fucosylated PSA; serum of Prostate cancer 1, GS 4 (2 + 2), pH in lectin reaction 9.6): 115.8 U/mL
- lectin reaction value of Prostate cancer 2 (serum fucosylated PSA; serum of Prostate cancer 2, GS 5 (2 + 3), pH in lectin reaction 9.6): 116.7 U/mL
- lectin reaction value of Prostate cancer 3 (serum fucosylated PSA; serum of Prostate cancer 3, GS 6 (3 + 3), pH in lectin reaction 9.6): 104.5 U/mL
- lectin reaction value A of Prostate cancer 4 (serum fucosylated PSA; pH in lectin reaction 7.4): 108.4 U/mL
- lectin reaction value A of Prostate cancer 4 (serum fucosylated PSA; pH in lectin reaction 9.6): 178.8 U/mL
- lectin reaction value of Prostate cancer 5 (serum fucosylated PSA; serum of Prostate cancer 5, GS 7 (3 + 4), pH in lectin reaction 9.6): 115.8 U/mL
- lectin reaction value of Prostate cancer 6 (serum fucosylated PSA; serum of Prostate cancer 6, GS 7 (3 + 4), pH in lectin reaction 9.6): 167.5 U/mL
- lectin reaction value of Prostate cancer 7 (serum fucosylated PSA; serum of Prostate cancer 7, GS 8 (3 + 5), pH in lectin reaction 9.6): 125.6 U/mL
- lectin reaction value of Prostate cancer 8 (serum fucosylated PSA; serum of Prostate cancer 8, GS 8 (4 + 4), pH in lectin reaction 9.6): 129.8 U/mL
- lectin reaction value of Prostate cancer 9 (serum fucosylated PSA; serum of Prostate cancer 9, GS 8 (4 + 4), pH in lectin reaction 9.6): 251.4 U/mL
- reaction value, Healthy person group, Average value (serum fucosylated PSA; [2]): 57.3 U/mL
- reaction value, Healthy person group, Median value (serum fucosylated PSA; [2]): 55.9 U/mL
- reaction value, Prostate cancer patient group, Average value (serum fucosylated PSA; [3]): 145.1 U/mL
- reaction value, Prostate cancer patient group, Median value (serum fucosylated PSA; [3]): 125.6 U/mL
- reaction value, GS6, Mean value (serum fucosylated PSA; subject samples A, n 2, pH 9.6): 141.7 U/mL
- reaction value, GS6, Median value (serum fucosylated PSA; subject samples A, n 2, pH 9.6): 141.7 U/mL
- reaction value, GS7, Mean value (serum fucosylated PSA; subject samples A, n 2, pH 9.6): 141.7 U/mL
- reaction value, GS7, Median value (serum fucosylated PSA; subject samples A, n 2, pH 9.6): 141.7 U/mL
- reaction value, Negative (GS5 or less), Mean value (serum fucosylated PSA; subject samples A, n 2, pH 9.6): 116.3 U/mL
- reaction value, Negative (GS5 or less), Median value (serum fucosylated PSA; subject samples A, n 2, pH 9.6): 116.3 U/mL
- reaction value, GS8 or more, Mean value (serum fucosylated PSA; subject samples A, n 3, pH 9.6): 129.8 U/mL
- reaction value, GS8 or more, Median value (serum fucosylated PSA; subject samples A, n 3, pH 9.6): 168.9 U/mL
- reaction value, GS8-9, Mean value (serum fucosylated PSA; subject samples B, n 6, pH 9.6): 232.9 U/mL
- reaction value, GS8-9, Median value (serum fucosylated PSA; subject samples B, n 6, pH 9.6): 239.8 U/mL
- reaction value, Negative, Mean value (serum fucosylated PSA; [4]): 203.8 U/mL
- reaction value, Negative, Median value (serum fucosylated PSA; [4]): 178.0 U/mL
- reaction value, GS6, Mean value (serum fucosylated PSA; subject samples B, n 9, pH 9.6): 181.7 U/mL
- reaction value, GS6, Median value (serum fucosylated PSA; subject samples B, n 9, pH 9.6): 188.9 U/mL
- reaction value, GS7, Mean value (serum fucosylated PSA; [5]): 119.5 U/mL
- reaction value, GS7, Median value (serum fucosylated PSA; [5]): 210.6 U/mL
